Data: paper PMC8222254, “Self-assembly of an anion receptor with metal-dependent kinase inhibition and potent in vitro anti-cancer properties” (Nature Communications, 2021)
Several values for one entry are separate records, joined by “and”; a condition that tells them apart may be missing. Equal values may be shown once.

Key:
HCT116 p53+/+ = experiment: Confocal imaging of autophagic cells (CYTO-ID); assay type: cell-based, human; settings: 3.125 µM, 40 h
Description: Cells were seeded in Lumox chamber slides (8-well, Sarstedt) at a density of 1.25 × 10^4 cells/well (ARPE-19) or 5.625 × 10^4 cells/well (HCT116 p53^−/− and HCT116 p53^+/+). 24 h after seeding, cells were treated with 3.125 μM of [L2Cu3]^6+, [L2Zn3]^6+, [L2Mn3]^6+, or vehicle control for 40 h before removal and addition of CYTO-ID Green autophagic dye (1:500 dilution, Enzo Life Sciences) and Hoechst 3342 nuclear counter stain for 30 min at 37 °C. Media was then replaced before imaging using a Zeiss LSM880 confocal laser scanning microscope.

[1] = target: 140 purified human kinases (Homo sapiens, UniProt Q13177); experiment: Kinase inhibition screen, cell-free 33P ATP assay at 10 μM; assay type: biochemical
Outline: (§1)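 Each complex tested in duplicate at 10 μM; cell-free radiometric assay using ^33P ATP on purified enzymes. Hits mapped by HGNC symbol onto the kinome tree.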

[2] = target: 140 purified human kinases (Homo sapiens, UniProt O75716); experiment: as above; assay type: biochemical
Outline: as §1

[3] = target: 140 purified human kinases (Homo sapiens, UniProt Q9HBH9); experiment: as above; assay type: biochemical
Outline: as §1

[4] = target: T1, 140 purified human kinases (Homo sapiens, UniProt O00418); experiment: as above; assay type: biochemical; settings: EF2K
T1 sequence (O00418 1-725): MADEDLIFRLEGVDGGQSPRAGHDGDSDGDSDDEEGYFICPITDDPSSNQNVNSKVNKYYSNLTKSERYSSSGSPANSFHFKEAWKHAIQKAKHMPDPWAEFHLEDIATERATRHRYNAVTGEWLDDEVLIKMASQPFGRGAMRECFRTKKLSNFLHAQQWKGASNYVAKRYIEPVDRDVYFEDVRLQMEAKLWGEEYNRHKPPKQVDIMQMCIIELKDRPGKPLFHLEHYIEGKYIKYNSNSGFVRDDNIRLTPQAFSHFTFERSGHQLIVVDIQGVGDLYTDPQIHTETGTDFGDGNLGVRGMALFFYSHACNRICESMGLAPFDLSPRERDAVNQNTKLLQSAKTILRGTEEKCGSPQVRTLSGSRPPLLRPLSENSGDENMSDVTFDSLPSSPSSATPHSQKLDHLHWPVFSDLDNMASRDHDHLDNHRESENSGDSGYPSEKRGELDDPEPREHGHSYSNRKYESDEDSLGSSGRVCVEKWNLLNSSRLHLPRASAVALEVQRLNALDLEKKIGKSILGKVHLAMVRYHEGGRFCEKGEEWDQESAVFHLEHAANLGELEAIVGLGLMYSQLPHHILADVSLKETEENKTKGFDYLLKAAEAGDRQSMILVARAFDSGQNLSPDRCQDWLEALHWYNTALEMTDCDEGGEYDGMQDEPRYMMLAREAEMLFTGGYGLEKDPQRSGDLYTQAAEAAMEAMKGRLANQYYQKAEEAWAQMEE
Outline: as §1

[5] = target: 140 purified human kinases (Homo sapiens, UniProt Q86Z02); experiment: as above; assay type: biochemical
Outline: as §1

[6] = target: 140 purified human kinases (Homo sapiens, UniProt Q15569); experiment: as above; assay type: biochemical
Outline: as §1

[7] = target: T2, 140 purified human kinases (Homo sapiens, UniProt Q14164); experiment: as above; assay type: biochemical; settings: IKKe
T2 sequence (Q14164 1-716): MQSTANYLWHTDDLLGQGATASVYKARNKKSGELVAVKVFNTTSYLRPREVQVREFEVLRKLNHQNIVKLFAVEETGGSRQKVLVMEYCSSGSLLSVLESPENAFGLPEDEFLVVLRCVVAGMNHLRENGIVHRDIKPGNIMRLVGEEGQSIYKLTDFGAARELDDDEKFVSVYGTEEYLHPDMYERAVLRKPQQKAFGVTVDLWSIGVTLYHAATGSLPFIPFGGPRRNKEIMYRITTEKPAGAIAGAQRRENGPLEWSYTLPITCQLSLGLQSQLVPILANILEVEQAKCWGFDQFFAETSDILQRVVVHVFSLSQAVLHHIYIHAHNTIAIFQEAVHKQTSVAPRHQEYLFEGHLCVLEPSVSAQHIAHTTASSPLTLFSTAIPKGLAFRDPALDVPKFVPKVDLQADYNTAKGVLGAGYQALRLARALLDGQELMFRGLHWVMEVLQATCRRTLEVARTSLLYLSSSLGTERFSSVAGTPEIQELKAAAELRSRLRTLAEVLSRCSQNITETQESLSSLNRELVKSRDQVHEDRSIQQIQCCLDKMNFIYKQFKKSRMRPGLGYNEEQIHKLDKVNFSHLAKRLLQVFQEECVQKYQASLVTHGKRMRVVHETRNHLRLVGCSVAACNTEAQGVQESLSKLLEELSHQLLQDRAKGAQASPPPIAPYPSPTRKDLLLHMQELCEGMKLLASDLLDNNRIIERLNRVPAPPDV
Outline: as §1

140 purified human kinases (Homo sapiens, UniProt O75716), sequence (O75716 whole entry): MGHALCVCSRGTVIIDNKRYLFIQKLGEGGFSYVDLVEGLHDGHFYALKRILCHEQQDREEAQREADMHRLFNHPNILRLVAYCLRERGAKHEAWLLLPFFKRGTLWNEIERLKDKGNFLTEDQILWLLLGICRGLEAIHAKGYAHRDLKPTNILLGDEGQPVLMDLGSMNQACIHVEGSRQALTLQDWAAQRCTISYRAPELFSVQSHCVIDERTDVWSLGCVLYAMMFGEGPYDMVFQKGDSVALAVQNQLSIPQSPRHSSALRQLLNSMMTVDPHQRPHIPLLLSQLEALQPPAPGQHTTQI
140 purified human kinases (Homo sapiens, UniProt Q86Z02), sequence (Q86Z02 whole entry): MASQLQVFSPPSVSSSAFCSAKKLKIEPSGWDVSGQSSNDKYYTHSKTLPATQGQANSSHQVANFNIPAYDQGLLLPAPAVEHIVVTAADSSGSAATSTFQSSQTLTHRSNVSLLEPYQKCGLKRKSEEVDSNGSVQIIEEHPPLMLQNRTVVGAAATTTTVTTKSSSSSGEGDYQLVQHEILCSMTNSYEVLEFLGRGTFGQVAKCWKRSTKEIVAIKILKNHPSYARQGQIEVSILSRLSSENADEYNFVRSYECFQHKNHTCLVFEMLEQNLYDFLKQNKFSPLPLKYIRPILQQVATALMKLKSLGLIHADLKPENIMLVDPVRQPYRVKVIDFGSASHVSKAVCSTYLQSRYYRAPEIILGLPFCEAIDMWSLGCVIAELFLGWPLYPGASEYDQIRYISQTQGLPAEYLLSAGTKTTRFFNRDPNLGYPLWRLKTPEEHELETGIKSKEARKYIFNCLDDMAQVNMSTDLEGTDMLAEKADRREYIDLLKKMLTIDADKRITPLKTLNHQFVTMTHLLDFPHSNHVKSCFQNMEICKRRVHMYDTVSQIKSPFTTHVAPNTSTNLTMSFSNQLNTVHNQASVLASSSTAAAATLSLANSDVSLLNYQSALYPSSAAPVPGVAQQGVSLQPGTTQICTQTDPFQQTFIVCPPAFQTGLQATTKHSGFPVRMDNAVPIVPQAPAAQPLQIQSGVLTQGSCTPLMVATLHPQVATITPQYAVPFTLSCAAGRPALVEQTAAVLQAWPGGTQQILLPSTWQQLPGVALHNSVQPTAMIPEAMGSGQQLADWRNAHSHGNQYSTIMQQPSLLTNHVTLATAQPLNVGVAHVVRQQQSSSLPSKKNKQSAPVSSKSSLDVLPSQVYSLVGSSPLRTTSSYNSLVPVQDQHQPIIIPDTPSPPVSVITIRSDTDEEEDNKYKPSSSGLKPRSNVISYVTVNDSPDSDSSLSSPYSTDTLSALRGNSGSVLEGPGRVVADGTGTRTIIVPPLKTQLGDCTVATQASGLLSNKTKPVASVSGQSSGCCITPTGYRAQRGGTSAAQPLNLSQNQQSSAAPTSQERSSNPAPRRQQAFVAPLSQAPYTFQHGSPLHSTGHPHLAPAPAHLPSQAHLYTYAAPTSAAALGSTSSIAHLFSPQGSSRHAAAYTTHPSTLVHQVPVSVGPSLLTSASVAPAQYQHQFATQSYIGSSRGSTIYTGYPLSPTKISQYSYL
140 purified human kinases (Homo sapiens, UniProt Q9HBH9), sequence (Q9HBH9 whole entry): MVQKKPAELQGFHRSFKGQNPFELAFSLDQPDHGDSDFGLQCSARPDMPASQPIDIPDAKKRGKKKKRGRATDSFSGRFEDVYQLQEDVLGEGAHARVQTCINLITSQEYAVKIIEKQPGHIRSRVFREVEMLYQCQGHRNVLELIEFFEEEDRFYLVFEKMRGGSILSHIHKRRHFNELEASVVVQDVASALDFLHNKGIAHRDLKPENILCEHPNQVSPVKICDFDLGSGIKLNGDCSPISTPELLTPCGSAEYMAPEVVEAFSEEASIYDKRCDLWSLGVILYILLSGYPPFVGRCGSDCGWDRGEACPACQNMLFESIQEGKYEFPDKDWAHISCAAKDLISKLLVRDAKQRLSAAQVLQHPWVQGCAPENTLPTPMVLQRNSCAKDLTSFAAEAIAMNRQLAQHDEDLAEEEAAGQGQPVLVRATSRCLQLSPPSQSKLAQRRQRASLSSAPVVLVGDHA
140 purified human kinases (Homo sapiens, UniProt Q15569), sequence (Q15569 whole entry): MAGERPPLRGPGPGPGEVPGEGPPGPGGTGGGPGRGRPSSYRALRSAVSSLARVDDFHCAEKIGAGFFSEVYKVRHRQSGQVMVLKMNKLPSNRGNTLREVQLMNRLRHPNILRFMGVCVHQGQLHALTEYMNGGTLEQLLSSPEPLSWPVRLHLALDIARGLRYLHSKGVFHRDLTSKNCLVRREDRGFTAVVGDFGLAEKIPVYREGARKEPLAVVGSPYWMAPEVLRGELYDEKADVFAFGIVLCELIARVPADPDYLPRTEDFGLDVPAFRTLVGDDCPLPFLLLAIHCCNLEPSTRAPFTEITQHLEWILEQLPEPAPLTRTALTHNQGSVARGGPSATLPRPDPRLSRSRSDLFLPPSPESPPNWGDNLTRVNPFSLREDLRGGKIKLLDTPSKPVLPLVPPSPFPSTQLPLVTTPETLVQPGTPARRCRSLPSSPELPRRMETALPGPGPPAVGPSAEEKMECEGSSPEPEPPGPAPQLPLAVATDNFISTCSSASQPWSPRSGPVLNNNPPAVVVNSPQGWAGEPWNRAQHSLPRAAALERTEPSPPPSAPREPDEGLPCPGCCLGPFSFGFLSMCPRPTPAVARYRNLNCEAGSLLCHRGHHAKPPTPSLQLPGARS
140 purified human kinases (Homo sapiens, UniProt Q13177), sequence (Q13177 whole entry): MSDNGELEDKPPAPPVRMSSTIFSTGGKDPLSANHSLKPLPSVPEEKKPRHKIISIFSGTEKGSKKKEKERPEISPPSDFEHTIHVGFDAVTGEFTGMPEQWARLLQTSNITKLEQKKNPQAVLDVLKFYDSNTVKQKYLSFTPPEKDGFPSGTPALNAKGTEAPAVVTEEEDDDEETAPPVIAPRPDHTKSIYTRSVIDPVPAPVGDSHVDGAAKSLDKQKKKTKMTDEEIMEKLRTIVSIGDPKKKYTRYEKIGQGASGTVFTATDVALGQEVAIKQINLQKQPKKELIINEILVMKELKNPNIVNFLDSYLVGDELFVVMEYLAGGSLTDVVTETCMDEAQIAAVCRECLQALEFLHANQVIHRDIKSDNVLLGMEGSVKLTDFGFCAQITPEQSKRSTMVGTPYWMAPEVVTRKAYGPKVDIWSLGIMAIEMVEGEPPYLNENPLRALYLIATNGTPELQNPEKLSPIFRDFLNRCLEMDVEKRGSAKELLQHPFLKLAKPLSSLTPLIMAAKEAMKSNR

In the case of [Mn+2].[Mn+2].[Mn+2].c1ccc(-c2csc(NCCN(CCNc3nc(-c4ccccn4)cs3)CCNc3nc(-c4ccccn4)cs3)n2)nc1.c1ccc(-c2csc(NCCN(CCNc3nc(-c4ccccn4)cs3)CCNc3nc(-c4ccccn4)cs3)n2)nc1 [[L2Mn3]6+], the “induction of autophagy (CYTO-ID)” value (HCT116 p53+/+) is reported as “evident”.
In the case of CC(=O)[O-].CC(=O)[O-].CC(=O)[O-].CC(=O)[O-].CC(=O)[O-].CC(=O)[O-].[Zn+2].[Zn+2].[Zn+2].c1ccc(-c2csc(NCCN(CCNc3nc(-c4ccccn4)cs3)CCNc3nc(-c4ccccn4)cs3)n2)nc1.c1ccc(-c2csc(NCCN(CCNc3nc(-c4ccccn4)cs3)CCNc3nc(-c4ccccn4)cs3)n2)nc1 [[L2Zn3]6+], the “induction of autophagy (CYTO-ID)” value (HCT116 p53+/+) is reported as “barely detectable”, the “% Inhibition, Mean” value ([1]; PAK2) is reported as 22% and the “% Inhibition, Run 1 / Run 2” value ([1]; PAK2) is reported as 23% and 21%. The mean % activity ([1]; PAK2) was 78%, the “% activity” value ([1]; PAK2, duplicate runs) was 77% and 79% and the “% Inhibition, Mean” value ([2]; MPSK1) was 22%. For the same molecule, the mean % activity ([2]; MPSK1) was 79%, the “% activity” value ([2]; MPSK1, duplicate runs) was 71% and 86% and the “% Inhibition, Mean” value ([3]; MNK2) was 33%. For the same molecule, the “% Inhibition, Run 1 / Run 2” value ([3]; MNK2) was 44% and 22%, the mean % activity ([3]; MNK2) was 67% and the “% activity” value ([3]; MNK2, duplicate runs) was 57% and 78%. The “% Activation, Mean value” [4] was 0.8%, the “% Inhibition, Mean” value [4] was -0.8% and the “% Inhibition, Run 1 / Run 2” value [4] was 2% and -3.6%. For the same molecule, the mean % activity [4] was 101%, the “% activity” value ([4]; duplicate runs) was 98% and 104% and the “% Inhibition, Mean” value ([5]; HIPK1) was 14%. The mean % activity ([5]; HIPK1) was 86%, the “% activity” value ([5]; HIPK1, duplicate runs) was 92% and 81% and the “% Inhibition, Mean” value ([6]; TESK1) was 25%. The “% Inhibition, Run 1 / Run 2” value ([6]; TESK1) was 34% and 17%, the mean % activity ([6]; TESK1) was 75% and the “% activity” value ([6]; TESK1, duplicate runs) was 66% and 83%. The “% Inhibition, Mean” value [7] was 21%, the mean % activity [7] was 79% and the “% activity” value ([7]; duplicate runs) was 69% and 89%.
In the case of [Cu+2].[Cu+2].[Cu+2].c1ccc(-c2csc(NCCN(CCNc3nc(-c4ccccn4)cs3)CCNc3nc(-c4ccccn4)cs3)n2)nc1.c1ccc(-c2csc(NCCN(CCNc3nc(-c4ccccn4)cs3)CCNc3nc(-c4ccccn4)cs3)n2)nc1 [[L2Cu3]6+], the “% Inhibition Run 1” value ([1]; PAK2) is reported as 44.4%, the “% Inhibition Run 2” value ([1]; PAK2) is reported as 32.1% and the “% Inhibition, Mean” value ([1]; PAK2) is reported as 38%. For the same molecule, the mean % activity ([1]; PAK2) was 62%, the “% activity” value ([1]; PAK2, Run 1) was 55.6% and the “% activity” value ([1]; PAK2, Run 2) was 67.9%. The “% Inhibition Run 1” value ([2]; MPSK1) was 71.3%, the “% Inhibition Run 2” value ([2]; MPSK1) was 60% and the “% Inhibition, Mean” value ([2]; MPSK1) was 66%. The mean % activity ([2]; MPSK1) was 34%, the “% activity” value ([2]; MPSK1, Run 1) was 28.7% and the “% activity” value ([2]; MPSK1, Run 2) was 40%. For the same molecule, the “% Inhibition Run 1” value ([3]; MNK2) was 59.3%, the “% Inhibition Run 2” value ([3]; MNK2) was 57.8% and the “% Inhibition, Mean” value ([3]; MNK2) was 59%. For the same molecule, the mean % activity ([3]; MNK2) was 41%, the “% activity” value ([3]; MNK2, Run 1) was 40.7% and the “% activity” value ([3]; MNK2, Run 2) was 42.2%. For the same molecule, the “% Inhibition Run 1” value [4] was 60.6%, the “% Inhibition Run 2” value [4] was 65.9% and the “% Inhibition, Mean” value [4] was 63%. For the same molecule, the mean % activity [4] was 37%, the “% activity” value ([4]; Run 1) was 39.4% and the “% activity” value ([4]; Run 2) was 34.1%. For the same molecule, the “% Inhibition Run 1” value ([5]; HIPK1) was 90.8%, the “% Inhibition Run 2” value ([5]; HIPK1) was 84.1% and the “% Inhibition, Mean” value ([5]; HIPK1) was 87%. The mean % activity ([5]; HIPK1) was 13%, the “% activity” value ([5]; HIPK1, Run 1) was 9.2% and the “% activity” value ([5]; HIPK1, Run 2) was 15.9%. For the same molecule, the “% Inhibition Run 1” value ([6]; TESK1) was 16.1%, the “% Inhibition Run 2” value ([6]; TESK1) was -16.2% and the “% Inhibition, Mean” value ([6]; TESK1) was -0.05%. The mean % activity ([6]; TESK1) was 100%, the “% activity” value ([6]; TESK1, Run 1) was 83.9% and the “% activity” value ([6]; TESK1, Run 2) was 116.2%. The “% Inhibition Run 1” value [7] was 69.9%, the “% Inhibition Run 2” value [7] was 53.3% and the “% Inhibition, Mean” value [7] was 62%. For the same molecule, the mean % activity [7] was 38%, the “% activity” value ([7]; Run 1) was 30.1% and the “% activity” value ([7]; Run 2) was 46.7%.
